# Experimental data published in EP0479899B1, “VASODILATORY AND IMMUNE SUPPRESSANT PEPTIDES” (THE PRESIDENT AND FELLOWS OF HARVARD COLLEGE, priority 1989, dated 1991).
# Where no end group is shown, it is not given here.
# Tested on: Human macrophages
# Test: H₂O₂ production by IFN-γ activated macrophages (scopoletin fluorometric assay)
# Format: cell-based
# Conditions: 3 hrs preincubation, up to 1000 ng/ml (2.5 X 10⁻⁷M); IFN-γ 200 units/ml; 3 days
substance,measurement,value
"Calcitonin: neuropeptide derived from the same gene as CGRP, available commercially (CGNLSTCMLGTYTQDFNKFHTFPQTAIGVGAP; ends and bridges not checked; cysteine pairing not given here; UniProt P01258 85-116, looked up)",inhibition of H₂O₂ production by macrophages,inhibit H₂O₂ production by macrophages to a degree similar to that seen with CGRP
